{"source": "patent US10208007B2", "about": "“Use of strigolactones and strigolactone analogs for treating proliferative conditions” (The State of Israel, Ministry of Agriculture & Rural …, priority 2011, dated 2019)", "key": {"[1]": {"system": "DU145", "test": "XTT viability assay", "type": "cell-based, human", "settings": "DU145, 3 days", "procedure": "(§1) Viability was assayed after 3 days (XTT, ATCC). IC50 concentrations are indicated (Table 3 above)."}, "[2]": {"system": "HCT116", "test": "XTT viability assay", "type": "cell-based, human", "settings": "HCT116, 3 days", "procedure": "as §1"}, "[3]": {"system": "HT-29", "test": "XTT viability assay", "type": "cell-based, human", "settings": "HT-29, 3 days", "procedure": "as §1"}, "[4]": {"system": "K562", "test": "XTT viability assay", "type": "cell-based, human", "settings": "K562, 3 days", "procedure": "as §1"}, "[5]": {"system": "LNCaP", "test": "XTT viability assay", "type": "cell-based, human", "settings": "3 days", "procedure": "as §1"}, "[6]": {"system": "MCF-7", "test": "XTT viability assay", "type": "cell-based, human", "settings": "MCF-7, 3 days", "procedure": "as §1"}, "[7]": {"system": "MDA-MB-231", "test": "XTT viability assay", "type": "cell-based, human", "settings": "MDA-MB-231, 3 days", "procedure": "as §1"}, "[8]": {"system": "MDA-MB-436", "test": "XTT viability assay", "type": "cell-based, human", "settings": "MDA-MB-436, 3 days", "procedure": "as §1"}, "[9]": {"system": "PC3", "test": "XTT viability assay", "type": "cell-based, human", "settings": "PC3, 3 days", "procedure": "as §1"}, "[10]": {"system": "SW480", "test": "XTT viability assay", "type": "cell-based, human", "settings": "SW480, 3 days", "procedure": "as §1"}, "[11]": {"system": "T47D", "test": "XTT viability assay", "type": "cell-based, human", "settings": "3 days", "procedure": "as §1"}, "[12]": {"system": "U20S", "test": "XTT viability assay", "type": "cell-based, human", "settings": "3 days", "procedure": "as §1"}, "[13]": {"system": "cancer derived cell lines", "test": "XTT viability assay, all cell lines tested", "type": "cell-based, human", "settings": "span over the cell lines", "procedure": "MCF-10A cells were used as non-tumorigenic line and various cell lines derived from other types of solid tumors were compiled including colon (HCT116, HT29, SW480), prostate (PC3, DU145, LNCaP), lung (A549), osteosarcoma (U20S) and Melanoma (T11) cell lines. A non-adherent leukemic cancer cell line, K562, was also included to further diversify the cohort (FIG. 7).\nas §1"}, "[14]": {"system": "HCT116 cells", "test": "Annexin V / PI staining", "type": "cell-based, human", "settings": "48 hours, from 3.6%", "procedure": "Cells were cultured for 48 hours under the same conditions as those used for the DNA content/cell cycle analysis. All the cells were collected and resuspended in 100 μl 1× Annexin V Binding Buffer (BD Biosciences, San Jose, Calif., USA). 2 μl FITC-Annexin V (BD Biosciences) was added and incubated for 10 min in the dark (room temperature). Cells were then stained with PI (Sigma, Saint Louis, Mo., USA) to a final concentration of 5 μg/ml and the cells were incubated at room temperature for 15 min in the dark. Then, 400 μl of Annexin V binding buffer were added and flow cytometry was performed using a BD FACSCalibur flow cytometer. Cells were considered to be apoptotic if they were Annexin V+/PI− (early apoptotic) and Annexin V+/PI+ (late apoptotic). Each analysis was performed using at least 20,000 events.\nChromosome condensation at mitosis is accompanied by phosphorylation of histone H3. Accordingly, in order to determine if cells were arresting at G2 or M phase, HCT116 cells were analyzed for pS10 Histone H3 following strigolactone analogs exposure. […] To further quantify whether the growth inhibition observed in-vitro following strigolactone treatment was due in part to apoptosis, HCT116 cells were dual stained with Annexin V and PI (Prodidium Iodide). Annexin V staining indicate the inversion of the inner leaflet of the plasma membrane an early event of apoptosis. Late apoptosis is characterized by loss of membrane integrity and cells become permeable to PI. […] Cells were incubated for 48 hours and then co-stained with annexin-V and PI (FIG. 12F). Following treatment with 10 ppm and 15 ppm MEB-55, the percentage of late apoptotic cell increased from 3.6% to 62% and 85% respectively (FIG. 12F, lower panel). […] Dual Annexin V/PI staining analysis was also carried out on two other colon cancer cell lines, (SW480, HT29) following strigolactone treatment. Increased apoptosis was also observed in these lines following MEB-55 treatment in a dose dependent manner (FIG. 12D)."}, "[15]": {"system": "MCF-7 mammospheres", "test": "Mammosphere formation", "type": "cell-based, human", "settings": "5 ppm and above", "procedure": "Adherent cells were gently trypsinized, (0.05% trypsin/EDTA) washed twice in PBS and filtered through a […] cell sieve to obtain a single cell suspensions. Cells were diluted to a concentration of 10,000 cell/ml in serum-free phenol-red free MEBM (MEGM Bulletkit, Lonza) supplemented with 5 μg/ml bovine insulin, 20 ng/ml recombinant epidermal growth factor, 20 ng/ml basic fibroblast growth factor (Gibco), 1×B27 supplement, 0.5 μg/ml hydrocortisone (MEGM Bulletkit, Lonza). For MDA-MB-231 mammosphere cultures serum-free phenol red-free CnT-27 medium with growth additives (CellnTEC Advanced cell systems, Bern, Switzerland) was used as previously described. 0.1 ml was seeded per well of a Ultralow attachment 96 well plates. The following day the indicated doses of GR-24 (ppm) or vehicle alone (0.6% acetone f/c) were added. Media was replenished every 3-4 days. Self-renewal capacity of the mammospheres was determined by re-plating and producing further generations of mammospheres. Secondary mammospheres were cultivated by dissociation (trypsinization with gently vortexing) of 10-14 day old primary mammospheres. Single cell suspensions were obtained as described above.\n(§2) Given the similar effects the other strigolactone analogs had on breast cancer cell line growth compared to GR-24, we anticipated that the strigolactone analogs would also have similar effects on MCF-7 primary mammosphere formation (FIG. 10): MCF-7 cells were seeded in MEBM media into low attachment, 96 well plates in duplicate at 3000 cells per well. The same day the indicated doses of strigolactone analogs were added. After 7 days representative images were taken. […] Like GR-24, the doses required to inhibit mammosphere formation are lower than that required to inhibit proliferation in monolayer cultures (5 fold lower; ST-362 and MEB-55, 3 fold lower; ST-357). To determine if the sensitivity to strigolactone analogs treatments was specific to mammosphere formation or whether it extended to the integrity and survival of mature mammospheres, MCF-7 mammospheres were grown in the absence of strigolactone analogs and after 7 days (or once mammospheres had reached a mean diameter of over […]), strigolactone analogs were added to the growth media (FIG. 10) at the indicated doses. MCF-7 cells were seeded in MEBM media into low attachment, 96 well plates in duplicate at 3000 cells per well and primary mammospheres left to grow for 7 days. At which time the indicated doses of strigolactone analogs were added to the media. FIG. 11A is a representative image of mammospheres treated with 5 ppm concentrations, showing dissociation after 2 days of exposure to strigolactone analogs. […] Following […] treatment, mammospheres were monitored visually after 24 and 48 hours. No changes were observed following 24 hours of strigolactone analogs treatment. […] At 5 ppm concentrations EG-5, EG-9C, ST-357, ST-362 and MEB-55 reduce mammosphere numbers from 86.7+6.8 (vehicle control) to 23+5, 38+6.2, 6+2, 8.3+3.5 and 9.3+1.5%, respectively. At 2.5 ppm concentrations, mammosphere numbers were reduced to 35+6.9 (EG-5), 52+12.3 (EG-9C), 22+8.5 (ST-357), 6+1.7 (ST-362) and 20.7+8.6 (MEB-55). […] XTT viability assays were also carried out on dissociated mammospheres. At concentrations of 5 ppm, EG-5, ST-362 and MEB-55 reduced viability to 3.7+0.5, 25.5+8.8 and 4.6+1.1% respectively."}, "[16]": {"system": "MCF-7 mammospheres", "test": "cells", "type": "cell-based, human", "settings": "for Mammosphere numbers (>100 μM), percentage of vehicle treated control: 5 days", "procedure": "as §2"}, "[17]": {"system": "MCF10A", "settings": "3 days", "experimental": "Results are presented as Average±SD of replicate analyses and are either representative of, or inclusive of at least two independent experiments. Statistical analyses were performed using student's t-test (2-tailed, paired) versus vehicle controls and are regarded as being significant when P<0.05(*). Higher powers (p<0.01, p<0.001) are also employed and indicated in each figure legend. IC50 doses for strigolactone analogs were calculated by interpolation of the sigmoidal dose response curves (Graphpad Prism 4.0 software). Briefly, linear regression was performed between relevant y-axis data points and interpolation calculated for x-axis unknowns.\nCells were seeded into a 96 well plates at 1500 cells per well (MCF-10, PC3, DU145, MDA-MB-231, MDA-MB-436, HT-29, SW480), 1000 cells per well (K562) or 4000 cells per well (MCF-7, HCT116) in triplicate in normal growing media (with the exception of K562, a non-adherent leukemic cell line which was seeded in phenol-free DMEM supplemented with 10% charcoal-stripped FBS). The following day media was replaced with phenol-free DMEM supplemented with 10% charcoal stripped FBS and the indicated final concentrations of strigolactone analog or vehicle (acetone) alone. Cells were incubated for 3 days, at which time XTT (2,3,-bis(2-methoxy-4-nitro-5-sulfophenyl)-5-[(phenylamino)-carbonyl]-2H-tetrazolium inner salt) reduction was used to quantify viability according to manufacturer's instruction (ATCC). Cells were incubated with XTT reagent for 2-3 hours at 37° C. in a humidified 5% CO2-95% air atmosphere. Absorbance was recorded by a photometer [sequence]luor Plus, Tecan (Salzburg, Austria) at 450 nm with 750 nm of reference wavelength. Cell survival was estimated from the equation: % cell survival=100×(At−Ac), where At and Ac are the absorbencies (450 nm) of the XTT colorimetric reaction (ATCC) in treated and control cultures respectively minus non-specific absorption measured at 750 nm. Absorbance of medium alone was also deducted from specific readings.\nMCF-10A cells were included as an example of a non-tumorigenic line. XTT viability assays were carried out in the presence of the indicated doses of strigolactone analogs following 3 days of treatment. Resulting differences in absorbance readings following strigolactone analogs treatment reflect changes in proliferation and cell survival (FIG. 7A-C): Cells were seeded into 96 well plates in normal growing media. The following day media was replaced with phenol-free DMEM supplemented with 10% charcoal-stripped serum and the indicated doses of strigolactone analog or vehicle (cont.) alone. Viability was assayed after 3 days (XTT, ATCC)."}, "[18]": {"system": "P38", "test": "Immunoblot of HSP27 phosphorylation with P38 inhibitor", "type": "cell-based, human", "settings": "MDA-231 cells, 2 μM and 10 μM, 1 hour pretreatment"}, "[19]": {"system": "MDA-231 cells", "test": "Combination with cisplatin, Combination Index (Chou and Talalay)", "type": "cell-based, human", "settings": "cisplatin line of Table 8", "procedure": "To determine if these concentrations of ST-362 can enhance the efficacy of low doses of cisplatin, MDA-231 cells were treated with varying concentrations of cisplatin in the presence of ST-362 IC50 and IC20 concentrations. The combination of ST-362 with low doses of cisplatin ranging for 0.01 to 0.1 μM produced a greater effect than each of the drugs alone (FIG. 20)."}}, "data": [{"smiles": "CC1=CC(O/C=C2\\Cc3c(n(C)c4ccc(-c5ccc(N(C)C)cc5)cc34)C2=O)OC1=O", "note": "(racemic) [EG-9c, (±) (2E)-4-methyl-2-(4-methyl-5-oxo-2,5-dihydrofuran-2-yloxymethylene)-7-[(4-dimethylamino)-phenyl]-1,4-dihydro-2H-cyclopenta[b]indol-3-one]", "values": [{"measurement": "IC50 at 72 h", "setting": "[1]", "result": 15, "unit": "ppm"}, {"measurement": "IC50 at 72 h", "setting": "[2]", "result": ">15", "unit": "ppm"}, {"measurement": "IC50 at 72 h", "setting": "[3]", "result": ">15", "unit": "ppm"}, {"measurement": "IC50 at 72 h", "setting": "[4]", "result": ">15", "unit": "ppm"}, {"measurement": "IC50 at 72 h", "setting": "[5]", "result": ">20", "unit": "ppm"}, {"measurement": "IC50 at 72 h", "setting": "[6]", "result": 17.3, "unit": "ppm"}, {"measurement": "IC50 at 72 h", "setting": "[7]", "result": ">10", "unit": "ppm"}, {"measurement": "IC50 at 72 h", "setting": "[8]", "result": ">10", "unit": "ppm"}, {"measurement": "IC50 at 72 h", "setting": "[9]", "result": ">15", "unit": "ppm"}, {"measurement": "IC50 at 72 h", "setting": "[10]", "result": ">15", "unit": "ppm"}, {"measurement": "IC50 at 72 h", "setting": "[11]", "result": ">10", "unit": "ppm"}, {"measurement": "IC50 at 72 h", "setting": "[12]", "result": 4.5, "unit": "ppm"}, {"measurement": "IC50 concentration over all cell lines tested", "setting": "[13]", "result": "10-15 ppm"}, {"measurement": "Percentage of late apoptotic cells (Annexin V+/PI+)", "setting": "[14]; 10 ppm", "result": 12.5, "unit": "%"}, {"measurement": "Percentage of late apoptotic cells (Annexin V+/PI+)", "setting": "[14]; 15 ppm", "result": 43.3, "unit": "%"}, {"measurement": "Mammosphere formation", "setting": "[15]", "result": "completely block mammosphere formation"}, {"measurement": "Mammosphere morphology", "setting": "[16]; 2.5-5 ppm, after 48 hours", "result": "less dramatic morphological change"}, {"measurement": "Mammosphere numbers (>100 μM), percentage of vehicle treated control", "setting": "[16]; 2.5 ppm", "result": "52+12.3%"}, {"measurement": "Mammosphere numbers (>100 μM), percentage of vehicle treated control", "setting": "[16]; 5 ppm, vehicle control 86.7+6.8", "result": "38+6.2%"}, {"measurement": "IC50 at 72 h", "setting": "[17]", "result": ">15", "unit": "ppm"}]}, {"smiles": "C[S+]([O-])c1ccc(-c2nc(-c3ccncc3)c(-c3ccc(F)cc3)[nH]2)cc1", "note": "(stereo not shown) [SB203580]", "values": [{"measurement": "HSP27 phosphorylation induced by ST-362 and MEB-55", "setting": "[18]", "result": "sufficient to inhibit HSP27 phosphorylation"}]}, {"smiles": "N.N.[Cl][Pt][Cl]", "note": "[Cisplatin, cisplatin]", "values": [{"measurement": "CI", "setting": "[19]", "result": 0.8}]}]}
